Results as given in ChEMBL document CHEMBL1201862, “PubChem BioAssay data set” (2004).
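Exposure lasted 48 hours, with cells grown in 96-well plates and compounds tested at five concentrations. The concentration for 50% growth inhibition is given as GI50.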 The source made the active and inactive calls. No stated cut-off is given here; in the data, active = GI50 up to about 1.1 µM and inactive = higher.

Experiments:
Assay in all cases: NCI-60 cell line screen, 48 h
IGROV-1 = tested on: IGROV-1
A549 = tested on: A549
DU-145 = tested on: DU-145
BT-549 = tested on: BT-549
SW-620 = tested on: SW-620
Malme-3M = tested on: Malme-3M
NCI-H522 = tested on: NCI-H522
UO-31 = tested on: UO-31
NCI/ADR-RES = tested on: NCI/ADR-RES
SK-MEL-28 = tested on: SK-MEL-28
K562 = tested on: K562
EKVX = tested on: EKVX
OVCAR-4 = tested on: OVCAR-4
NCI-H226 = tested on: NCI-H226
OVCAR-3 = tested on: OVCAR-3
LOX IMVI = tested on: LOX IMVI
SK-MEL-5 = tested on: SK-MEL-5
OVCAR-8 = tested on: OVCAR-8
NCI-H460 = tested on: NCI-H460
RXF 393 = tested on: RXF 393

Compound	GI50 (IGROV-1)	GI50 (A549)	GI50 (DU-145)	GI50 (BT-549)	GI50 (SW-620)	GI50 (Malme-3M)	GI50 (NCI-H522)	GI50 (UO-31)	GI50 (NCI/ADR-RES)	GI50 (SK-MEL-28)	GI50 (K562)	GI50 (EKVX)	GI50 (OVCAR-4)	GI50 (NCI-H226)	GI50 (OVCAR-3)	GI50 (LOX IMVI)	GI50 (SK-MEL-5)	GI50 (OVCAR-8)	GI50 (NCI-H460)	GI50 (RXF 393)
COC(=O)c1ccc(NCC2=CC(=O)C=CC2=O)cc1	16.7 µM (inactive)	22.7 µM (inactive)	15.5 µM (inactive)	13.6 µM (inactive)	3.75 µM (inactive)	4.55 µM (inactive)	1.7 µM (inactive)	7.08 µM (inactive)	4.38 µM (inactive)	15.1 µM (inactive)	2.69 µM (inactive)	10.6 µM (inactive)	12.4 µM (inactive)	17.9 µM (inactive)	1.79 µM (inactive)	5 µM (inactive)	18.5 µM (inactive)	13.9 µM (inactive)	–	–
Cc1cc2c(c(=O)o1)C1=S(SC(c3ccccc3)=C1)S2 (stereo unspecified)	55.5 µM (inactive)	33.7 µM (inactive)	36.3 µM (inactive)	> 100 µM (inactive)	> 100 µM (inactive)	30.1 µM (inactive)	37.6 µM (inactive)	26.5 µM (inactive)	83.4 µM (inactive)	> 100 µM (inactive)	38.4 µM (inactive)	–	29 µM (inactive)	–	24.9 µM (inactive)	87.1 µM (inactive)	47.4 µM (inactive)	54.7 µM (inactive)	37.2 µM (inactive)	20.2 µM (inactive)
CC1C2CCC3C(O)C2(CC(O)C2(O)C1CC(O)C2(C)C)CC3(C)O (stereo unspecified)	> 100 µM (inactive)	> 100 µM (inactive)	> 100 µM (inactive)	> 100 µM (inactive)	> 100 µM (inactive)	> 100 µM (inactive)	> 100 µM (inactive)	> 100 µM (inactive)	> 100 µM (inactive)	> 100 µM (inactive)	> 100 µM (inactive)	> 100 µM (inactive)	> 100 µM (inactive)	> 100 µM (inactive)	–	> 100 µM (inactive)	> 100 µM (inactive)	> 100 µM (inactive)	> 100 µM (inactive)	–
Cc1cc(-c2[nH]c(C(=O)O)cc2I)on1	12.5 µM (inactive)	56.6 µM (inactive)	> 100 µM (inactive)	66.1 µM (inactive)	> 100 µM (inactive)	> 100 µM (inactive)	> 100 µM (inactive)	40.5 µM (inactive)	> 100 µM (inactive)	> 100 µM (inactive)	> 100 µM (inactive)	51.6 µM (inactive)	> 100 µM (inactive)	–	> 100 µM (inactive)	–	> 100 µM (inactive)	20.2 µM (inactive)	> 100 µM (inactive)	24 µM (inactive)
Cc1cccc2c(N)c3cccc(C(=O)NCCN(C)C)c3nc12	< 0.0291 µM (active)	< 0.0161 µM (active)	0.0188 µM (active)	1.41 µM (inactive)	< 0.0225 µM (active)	0.173 µM (active)	< 0.0176 µM (active)	0.112 µM (active)	0.373 µM (active)	0.193 µM (active)	0.0162 µM (active)	0.0583 µM (active)	0.09 µM (active)	–	0.125 µM (active)	< 0.033 µM (active)	0.114 µM (active)	0.0695 µM (active)	< 0.01 µM (active)	0.184 µM (active)
C/C(=N\Nc1nc2ccccc2o1)c1cc(C)ncn1	0.0275 µM (active)	0.0957 µM (active)	0.171 µM (active)	0.305 µM (active)	< 0.0201 µM (active)	0.0327 µM (active)	< 0.01 µM (active)	0.019 µM (active)	0.0242 µM (active)	4 µM (inactive)	0.0356 µM (active)	< 0.0153 µM (active)	0.136 µM (active)	< 0.0142 µM (active)	< 0.0223 µM (active)	–	0.0381 µM (active)	0.0173 µM (active)	0.0455 µM (active)	1.34 µM (inactive)
COc1cc(Nc2c(C#N)[n+]([O-])c3ccccc3[n+]2[O-])cc(OC)c1OC	–	43.8 µM (inactive)	43.3 µM (inactive)	97.5 µM (inactive)	29.9 µM (inactive)	35.2 µM (inactive)	29.1 µM (inactive)	> 100 µM (inactive)	17.3 µM (inactive)	19 µM (inactive)	39.1 µM (inactive)	29 µM (inactive)	> 100 µM (inactive)	–	25.6 µM (inactive)	26.7 µM (inactive)	19.6 µM (inactive)	31.9 µM (inactive)	35.2 µM (inactive)	33.8 µM (inactive)
CC1(C)C2CCC1(C)C(OC(=O)/C=C/C(=O)OC1CC3CCC1(C)C3(C)C)C2 (stereo unspecified)	> 100 µM (inactive)	> 100 µM (inactive)	> 100 µM (inactive)	44.7 µM (inactive)	38.1 µM (inactive)	–	41 µM (inactive)	> 100 µM (inactive)	> 100 µM (inactive)	18.9 µM (inactive)	31.9 µM (inactive)	> 100 µM (inactive)	> 100 µM (inactive)	–	48.8 µM (inactive)	21.7 µM (inactive)	17.9 µM (inactive)	> 100 µM (inactive)	67.9 µM (inactive)	58.9 µM (inactive)
